These results are taken from patent US9150588B2, “Substituted pyridazin-4(1H)-ones as phosphodiesterase 10A inhibitors” (TAKEDA PHARMACEUTICAL COMPANY LIMITED, priority 2010, dated 2015).

T1 sequence (Q9Y233 267-1055): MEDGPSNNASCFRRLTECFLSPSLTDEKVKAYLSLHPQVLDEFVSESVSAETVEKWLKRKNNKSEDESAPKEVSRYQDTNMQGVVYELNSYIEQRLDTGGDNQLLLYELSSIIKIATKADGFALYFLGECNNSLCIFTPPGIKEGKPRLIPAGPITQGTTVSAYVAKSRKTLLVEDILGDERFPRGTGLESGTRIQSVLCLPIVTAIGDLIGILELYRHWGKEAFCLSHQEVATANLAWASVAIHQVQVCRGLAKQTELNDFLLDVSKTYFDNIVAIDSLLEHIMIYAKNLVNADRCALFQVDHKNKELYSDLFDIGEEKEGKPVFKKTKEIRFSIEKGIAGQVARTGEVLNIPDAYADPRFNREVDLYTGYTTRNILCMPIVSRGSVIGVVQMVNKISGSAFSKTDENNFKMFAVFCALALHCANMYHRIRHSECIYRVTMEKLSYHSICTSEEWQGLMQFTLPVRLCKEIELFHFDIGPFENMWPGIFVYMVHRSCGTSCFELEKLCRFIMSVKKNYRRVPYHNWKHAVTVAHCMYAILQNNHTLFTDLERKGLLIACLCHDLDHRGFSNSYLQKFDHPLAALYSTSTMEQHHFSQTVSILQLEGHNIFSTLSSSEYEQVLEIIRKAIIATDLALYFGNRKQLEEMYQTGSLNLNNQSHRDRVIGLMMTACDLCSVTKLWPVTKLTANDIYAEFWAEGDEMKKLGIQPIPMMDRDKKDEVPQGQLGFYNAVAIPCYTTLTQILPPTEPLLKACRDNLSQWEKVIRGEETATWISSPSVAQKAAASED

The experiment has as its target T1, human PDE10A enzyme (Homo sapiens, UniProt Q9Y233).
T1 construct: Human PDE10A full-length gene was transfected into Sf9 or COS-7 cells; His-tag; made in house; host or cells: Sf9 or COS-7 cells
The experiment in a line: PDE10A Enzyme Activity Inhibition Test (SPA, [3H]cGMP substrate). The note with it: at 100 nM compound; read-out: PDE10A enzyme activity inhibition rate. Type of experiment: biochemical. On the procedure:
PDE10A Enzyme Activity Inhibition Test
Human PDE10A full-length gene was transfected into Sf9 or COS-7 cells, the cells were disrupted and centrifuged, and human PDE10A enzyme was obtained from the residue. The enzyme extracted from Sf9 cells was partially purified using His-tag affinity column. The enzyme was stored at −70° C. until use. The PDE activity was measured using an SPA (Scintillation Proximity Assay) (GE Healthcare). To measure the inhibitory activity of the compound, 10 μL of serially diluted compound was reacted with 20 μL of PDE enzyme in an assay buffer (50 mM HEPES-NaOH, 8.3 mM MgCl2, 1.7 mM EGTA, 0.1% BSA (pH 7.4)) for 30 min at room temperature. The final concentration of DMSO in the reaction mixture was 1 percent. The compounds were evaluated in duplicate in 96-well half-area plates (Corning). To start the reaction, 10 μL of substrate [^3H] cGMP (25 and 50 nM; GE Healthcare and PerkinElmer, respectively) was added to 40 μL. After 60 min of reaction at room temperature, yttrium SPA beads containing zinc sulphate were added (6 mg/mL, 20 μL) to terminate the PDE reaction. After standing still for 1 hr, the measurement was performed using a scintillation counter (PerkinElmer) and the PDE10A enzyme activity inhibition rate was calculated. The inhibition rate was calculated based on the control containing enzyme and DMSO as 0% and the control without enzyme as 100%.
By inhibition is commonly meant how much of the control response was suppressed. With `O=c1c(-c2ccnn2-c2ccccc2)nn(-c2cccc(C(F)(F)F)c2)c2ccoc12` [Example 1, 3-(1-phenyl-1H-pyrazol-5-yl)-1-[3-(trifluoromethyl)phenyl]furo[3,2-c]pyridazin-4(1H)-one], the inhibition at 0.1 µM is not below 50%.

In the case of `O=c1c(-c2ccnn2-c2ccccc2)nn(-c2cccc(C(F)(F)F)c2)c2c1OCC2` [Example 2, 3-(1-phenyl-1H-pyrazol-5-yl)-1-[3-(trifluoromethyl)phenyl]-6,7-dihydrofuro[3,2-c]pyridazin-4(1H)-one], the inhibition at 0.1 µM is not below 50%.

For `O=c1cc2n(nc1-c1ccnn1-c1ccccc1)-c1ccccc1OC2` [Example 11, 2-(1-phenyl-1H-pyrazol-5-yl)pyridazino[6,1-c][1,4]benzoxazin-3(5H)-one], the inhibition at 0.1 µM was not below 50%.

In the case of `COc1c(-c2ccnn2-c2ccccc2)oc(-c2ccccc2)cc1=O` [Example 12, 3-methoxy-6-phenyl-2-(1-phenyl-1H-pyrazol-5-yl)-4H-pyran-4-one], the inhibition at 0.1 µM is less than 50%.

With `O=c1[nH]cc(-c2ccccc2)nc1-c1ccnn1-c1ccccc1` [Example 13, 5-phenyl-3-(1-phenyl-1H-pyrazol-5-yl)pyrazin-2(1H)-one], the inhibition at 0.1 µM is less than 50%.

`O=c1cc(-c2ccccc2)oc(-c2ccnn2-c2ccccc2)c1O` [Example 14, 3-hydroxy-6-phenyl-2-(1-phenyl-1H-pyrazol-5-yl)-4H-pyran-4-one]: the inhibition at 0.1 µM was less than 50%.

As for `O=c1[nH]nc(-c2ccccc2)cc1-c1ccnn1-c1ccccc1` [Example 15, 6-phenyl-4-(1-phenyl-1H-pyrazol-5-yl)pyridazin-3(2H)-one], the inhibition at 0.1 µM was less than 50%.

For `O=c1[nH]cc(-c2ccccc2)cc1-c1ccnn1-c1ccccc1` [Example 16, 5-phenyl-3-(1-phenyl-1H-pyrazol-5-yl)pyridin-2(1H)-one], the inhibition at 0.1 µM was not below 50%.

Consider `O=c1cc(-c2ccnn2-c2ccccc2)nc(-c2ccccc2)[nH]1` [Example 17, 2-phenyl-6-(1-phenyl-1H-pyrazol-5-yl)pyrimidin-4(3H)-one], for which the inhibition at 0.1 µM is less than 50%.

For the compound `O=c1ccn(-c2cccc(C(F)(F)F)c2)cc1-c1ccnn1-c1ccccc1` [Example 18, 3-(1-phenyl-1H-pyrazol-5-yl)-1-[3-(trifluoromethyl)phenyl]pyridin-4(1H)-one], the inhibition at 0.1 µM was less than 50%.

`O=c1cnn(-c2cccc(C(F)(F)F)c2)cc1-c1ccnn1-c1ccccc1` [Example 19, 5-(1-phenyl-1H-pyrazol-5-yl)-1-[3-(trifluoromethyl)phenyl]pyridazin-4(1H)-one]: the inhibition at 0.1 µM was less than 50%.

Turning to `O=c1ccc(-c2ccccc2F)cn1-c1ccnn1-c1ccccc1` [Example 20, 5-(2-fluorophenyl)-1-(1-phenyl-1H-pyrazol-5-yl)pyridin-2(1H)-one], the inhibition at 0.1 µM is less than 50%.

For `O=c1ccc(-c2cccc(C(F)(F)F)c2)nn1-c1ccnn1-c1ccccc1` [Example 21, 2-(1-phenyl-1H-pyrazol-5-yl)-6-[3-(trifluoromethyl)phenyl]pyridazin-3(2H)-one], the inhibition at 0.1 µM is less than 50%.

Turning to `COc1cn(Cc2ccccc2)nc(-c2ccnn2-c2ccccc2)c1=O` [Example 23, 1-benzyl-5-methoxy-3-(1-phenyl-1H-pyrazol-5-yl)pyridazin-4(1H)-one], the inhibition at 0.1 µM was not below 50%.

For the compound `COc1cn(C2=CCN(Cc3ccccc3)CC2)nc(-c2ccnn2-c2ccccc2)c1=O` [Example 25, 1-(1-benzyl-1,2,3,6-tetrahydropyridin-4-yl)-5-methoxy-3-(1-phenyl-1H-pyrazol-5-yl)pyridazin-4(1H)-one], the inhibition at 0.1 µM is not below 50%.

For `O=c1ccn(C2CCN(Cc3ccccc3)CC2)nc1-c1ccnn1-c1ccccc1` [Example 28, 1-(1-benzylpiperidin-4-yl)-3-(1-phenyl-1H-pyrazol-5-yl)pyridazin-4(1H)-one], the inhibition at 0.1 µM is less than 50%.

As for `O=c1ccn(C2CCN(c3ccccc3)CC2)nc1-c1ccnn1-c1ccccc1` [Example 31, 1-(1-phenylpiperidin-4-yl)-3-(1-phenyl-1H-pyrazol-5-yl)pyridazin-4(1H)-one], the inhibition at 0.1 µM is not below 50%.

Turning to `O=c1ccn(C2CCCN(c3ccccc3)C2)nc1-c1ccnn1-c1ccccc1` (centres unmarked) [Example 46, 1-(1-phenylpiperidin-3-yl)-3-(1-phenyl-1H-pyrazol-5-yl)pyridazin-4(1H)-one], the inhibition at 0.1 µM was less than 50%.

With `O=C(c1ccccc1)N1CCC(n2ccc(=O)c(-c3ccnn3-c3ccccc3)n2)CC1` [Example 49, 1-[1-(phenylcarbonyl)piperidin-4-yl]-3-(1-phenyl-1H-pyrazol-5-yl)pyridazin-4(1H)-one], the inhibition at 0.1 µM is less than 50%.

Turning to `COc1cn(C2CCN(c3nccs3)CC2)nc(-c2ccnn2-c2ccccc2)c1=O` [Example 53, 5-methoxy-3-(1-phenyl-1H-pyrazol-5-yl)-1-[1-(1,3-thiazol-2-yl)piperidin-4-yl]pyridazin-4(1H)-one], the inhibition at 0.1 µM is not below 50%.

`COc1cn(C2CCN(c3ncccc3C#N)CC2)nc(-c2ccnn2-c2ccccc2)c1=O` [Example 56, 2-{4-[5-methoxy-4-oxo-3-(1-phenyl-1H-pyrazol-5-yl)pyridazin-1(4H)-yl]piperidin-1-yl}pyridine-3-carbonitrile]: the inhibition at 0.1 µM is not below 50%.

With `COc1cn(C2CCc3ccccc3C2)nc(-c2ccnn2-c2ccccc2)c1=O` (centres unmarked) [Example 58, 5-methoxy-3-(1-phenyl-1H-pyrazol-5-yl)-1-(1,2,3,4-tetrahydronaphthalen-2-yl)pyridazin-4(1H)-one], the inhibition at 0.1 µM was not below 50%.

With `COc1cn(CC2CC2)nc(-c2ccnn2-c2ccccc2)c1=O` [Example 59, 1-(cyclopropylmethyl)-5-methoxy-3-(1-phenyl-1H-pyrazol-5-yl)pyridazin-4(1H)-one], the inhibition at 0.1 µM was less than 50%.

Regarding `COc1cn(S(=O)(=O)c2ccccc2)nc(-c2ccnn2-c2ccccc2)c1=O` [Example 60, 5-methoxy-3-(1-phenyl-1H-pyrazol-5-yl)-1-(phenylsulfonyl)pyridazin-4(1H)-one], the inhibition at 0.1 µM was less than 50%.

Consider `COc1cn(Cc2cccc(-c3ccccc3)c2)nc(-c2ccnn2-c2ccccc2)c1=O` [Example 61, 1-(biphenyl-3-ylmethyl)-5-methoxy-3-(1-phenyl-1H-pyrazol-5-yl)pyridazin-4(1H)-one], for which the inhibition at 0.1 µM is not below 50%.

Turning to `O=c1ccn(C2CCN(c3ccccc3C(F)(F)F)CC2)nc1-c1ccnn1-c1ccccc1` [Example 64, 3-(1-phenyl-1H-pyrazol-5-yl)-1-{1-[2-(trifluoromethyl)phenyl]piperidin-4-yl}pyridazin-4(1H)-one], the inhibition at 0.1 µM is less than 50%.

On to `COc1cn(C2CCCc3ccccc32)nc(-c2ccnn2-c2ccccc2)c1=O` (centres unmarked) [Example 97, 5-methoxy-3-(1-phenyl-1H-pyrazol-5-yl)-1-(1,2,3,4-tetrahydronaphthalen-1-yl)pyridazin-4(1H)-one], for which the inhibition at 0.1 µM is less than 50%.

As for `COc1cn(C2CN(c3ncccc3C(F)(F)F)C2)nc(-c2ccnn2-c2ccccc2)c1=O` [Example 98, 5-methoxy-3-(1-phenyl-1H-pyrazol-5-yl)-1-{1-[3-(trifluoromethyl)pyridin-2-yl]azetidin-3-yl}pyridazin-4(1H)-one], the inhibition at 0.1 µM is not below 50%.

As to `COc1cn(Cc2ccccc2C(F)(F)F)nc(-c2ccnn2-c2ccccc2)c1=O` [Example 102, 5-methoxy-3-(1-phenyl-1H-pyrazol-5-yl)-1-[2-(trifluoromethyl)benzyl]pyridazin-4(1H)-one], the inhibition at 0.1 µM is less than 50%.

As to `O=c1cc(-c2ccccc2)sc(-c2ccnn2-c2ccccc2)c1` [Example 140, 2-phenyl-6-(1-phenyl-1H-pyrazol-5-yl)-4H-thiopyran-4-one], the inhibition at 0.1 µM is less than 50%.

Consider `COc1nc(-c2ccccc2)cn(-c2ccnn2-c2ccccc2)c1=O` [Example 141, 3-methoxy-5-phenyl-1-(1-phenyl-1H-pyrazol-5-yl)pyrazin-2(1H)-one], for which the inhibition at 0.1 µM was less than 50%.

As to `COc1cn(-c2cccc(C(F)(F)F)c2)nc(C2=NC(C)(C)C(=O)N2c2ccccc2)c1=O` [Example 142, 3-(4,4-dimethyl-5-oxo-1-phenyl-4,5-dihydro-1H-imidazol-2-yl)-5-methoxy-1-[3-(trifluoromethyl)phenyl]pyridazin-4(1H)-one], the inhibition at 0.1 µM was less than 50%.
